This test concerns the target T1, Bifunctional epoxide hydrolase 2 (Homo sapiens, UniProt P34913).
T1 sequence (P34913 whole entry): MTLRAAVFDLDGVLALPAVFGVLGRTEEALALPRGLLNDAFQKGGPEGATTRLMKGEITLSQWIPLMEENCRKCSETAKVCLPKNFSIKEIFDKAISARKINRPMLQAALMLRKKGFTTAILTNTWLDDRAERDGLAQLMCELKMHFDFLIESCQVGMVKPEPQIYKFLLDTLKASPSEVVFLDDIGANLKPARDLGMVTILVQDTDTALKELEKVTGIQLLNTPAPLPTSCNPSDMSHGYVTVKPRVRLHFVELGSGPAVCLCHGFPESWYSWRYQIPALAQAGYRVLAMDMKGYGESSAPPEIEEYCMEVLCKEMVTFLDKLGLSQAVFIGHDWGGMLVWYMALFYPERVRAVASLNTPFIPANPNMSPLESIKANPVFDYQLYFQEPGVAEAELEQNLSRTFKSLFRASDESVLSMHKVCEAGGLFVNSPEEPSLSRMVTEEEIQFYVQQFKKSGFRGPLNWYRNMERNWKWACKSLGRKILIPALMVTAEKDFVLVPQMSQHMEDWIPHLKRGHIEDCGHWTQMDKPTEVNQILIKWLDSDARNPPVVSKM
The test can be described thus: Inhibition of sEH (unknown origin) expressed in baculovirus expression system incubated for 1 hr.

Structures are written as SMILES.

Turning to `C[C@@H](C(=O)O)[C@H]1Cc2c(c(O)c3ccccc3c2O[C@@H]2O[C@H](CO)[C@@H](O)[C@H](O)[C@H]2O)C(=O)O1`, inhibition was half-maximal at 600 nM (IC50).

The values are drawn from ChEMBL document CHEMBL4840331, “Configurational Assignment of a Flexible Benzo[g]isochromene Stereodiad from Rubia philippinensis and Inhibition of Soluble Epoxide Hydrolase Activity” (J Nat Prod, 2021).
